In US8153692B2, “Oral preparation for preventing or improving skin dryness” (Kyowa Hakko Bio Co., Ltd., priority 2005, dated 2012):

Test system: HOS:HR-1 mice
Experiment: Skin water content after oral ingestion of citrulline in feed (SKICON-200)
Assay type: in vivo
Conditions: CE-2 feed containing 1.0% by weight of L-citrulline, measured weekly from 1 to 5 weeks, relative to CE-2 feed group
Procedure: HOS:HR-1 mice (male, 5 weeks old, purchased from Charles River Co., Ltd.) were used in the test. The breeding conditions were that the room temperature was 22±2° C., the humidity was 35±15% and a feed and water were freely ingested.
Each test group consisted of 10 mice. A commercially available powder feed CE-2 (manufactured by Clea Japan) was fed to mice of the first group, CE-2 containing 1.0% by weight of L-citrulline (manufactured by Kyowa Hakko Kogyo Co., Ltd.) was fed to mice of the second group.
The water content of the skin surface on the back thigh upper portion of each mouse was measured with SKICON-200 (manufactured by IBS) every one week, from a week to five weeks after the start-up of the feeding of each feed. The measurement was conducted ten times for each mouse, and an average value of each mouse was obtained. Further, an average value of each test group was calculated.
The relative epidermal water content was calculated according to the following formula using the average value. Relative epidermal water content (%)=(A2/A1)×100 • A1: Epidermal water content of the first group • A2: Epidermal water content of the second group

With `NC(=O)NCCC[C@H](N)C(=O)O` [citrulline, L-citrulline] the “water content of the skin (relative epidermal water content)” value was “markedly improved”.
